Key:
Type in all cases: in vivo
[1] = test system: Setaria faberi (SETFA); assay: Example B2 herbicidal action, post-emergence, pots in glasshouse; settings: Application post-emergence, evaluated after 13 days (100=total damage to plant; 0=no damage to plant)
Method: (§1) Seeds of a variety of test species were sown in standard soil in pots. After 8 days cultivation (post-emergence) under controlled conditions in a glasshouse (at 24/16° C., day/night; 14 hours light; 65% humidity), the plants were sprayed with an aqueous spray solution derived from the formulation of the technical active ingredient in acetone/water (50:50) solution containing 0.5% Tween 20 (polyoxyethylene sorbitan monolaurate, CAS RN 9005-64-5). The test plants were then grown in a glasshouse under controlled conditions in a glasshouse (at 24/16° C., day/night; 14 hours light; 65% humidity) and watered twice daily. After 13 days, the test was evaluated (100=total damage to plant; 0=no damage to plant).

[2] = test system: Amaranthus retroflexus (AMARE); assay: as above; settings: Application post-emergence, evaluated after 13 days (100=total damage to plant; 0=no damage to plant)
Method: as §1

[3] = test system: Echinochloa crusgalli (ECHCG); assay: as above; settings: Application post-emergence, evaluated after 13 days (100=total damage to plant; 0=no damage to plant)
Method: as §1

[4] = test system: Solanum nigrum (SOLNI); assay: as above; settings: Application post-emergence, evaluated after 13 days
Method: as §1

[5] = test system: Ipomea hederaceae (IPOHE); assay: as above; settings: Application post-emergence, evaluated after 13 days (100=total damage to plant; 0=no damage to plant)
Method: as §1

[6] = test system: Nasturtium officinale (NAAOF); assay: Example B1 herbicidal action, post-emergence, 96-cell seed trays, climatic chamber; parameters: scale not given here; settings: Application post-emergence, 1000 mg/l spray equivalent to 1000 g/ha, evaluated after 9 days (100=total damage to plant, 0=no damage to plant)
Procedure, shortened: (§2)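 Plants at 8–9 days post-sowing (23/17 °C, 13 h light, 50–60% humidity) sprayed post-emergence with 1000 mg/l active ingredient in 10% DMSO, equivalent to 1000 g/ha. Grown on at 24/19 °C, watered twice daily; damage scored after 9 days (0 = none, 100 = total).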

[7] = test system: Amaranthus retroflexus (AMARE); assay: as above; settings: Application post-emergence, 1000 mg/l spray equivalent to 1000 g/ha, evaluated after 9 days
Procedure, shortened: as §2

[8] = test system: Stellaria media (STEME); assay: as above; settings: Application post-emergence, 1000 mg/l spray equivalent to 1000 g/ha, evaluated after 9 days (100=total damage to plant, 0=no damage to plant)
Procedure, shortened: as §2

[9] = test system: Solanum nigrum (SOLNI); assay: as above; settings: Application post-emergence, 1000 mg/l spray equivalent to 1000 g/ha, evaluated after 9 days (100=total damage to plant, 0=no damage to plant)
Procedure, shortened: as §2

SMILES	damage to plant, Setaria faberi (SETFA) [1]	damage to plant, Amaranthus retroflexus (AMARE) [2]	damage to plant, Echinochloa crusgalli (ECHCG) [3]	damage to plant, Solanum nigrum (SOLNI) [4]	damage to plant, Ipomea hederaceae (IPOHE) [5]	damage to plant, Nasturtium officinale (NAAOF) [6]	damage to plant, Amaranthus retroflexus (AMARE) [7]	damage to plant, Stellaria media (STEME) [8]	damage to plant, Solanum nigrum (SOLNI) [9]
O=c1[nH]c2nccnc2c(O)c1-c1ccccc1Br [Compound A24]	6	10	4	9	6				
O=c1[nH]c2nccnc2c(O)c1-c1c(Cl)cc(OC(F)(F)F)cc1Cl [Compound A36]	8	7	10	8	0				
Cc1ccc(C)c(-c2c(O)c3nccnc3[nH]c2=O)c1 [Compound A37]	7	4	7	6	1				
O=c1[nH]c2nccnc2c(O)c1-c1cc(F)ccc1Cl [Compound A38]	9	10	8	9	0				
O=c1[nH]c2nccnc2c(O)c1-c1cc(F)c(Cl)cc1Cl [Compound A39]	7	8	8	6	0				
O=c1[nH]c2nccnc2c(O)c1-c1c(F)ccc(Br)c1Cl [Compound A40]	9	9	5	8	0				
CC(C)(C)C(=O)Oc1c(-c2c(Cl)cc(OC(F)(F)F)cc2Cl)c(=O)[nH]c2nccnc12 [Compound B42]	8	0	1	5	0				
CC(C)(C)C(=O)Oc1c(-c2ccc(C(F)(F)F)cc2[N+](=O)[O-])c(=O)[nH]c2nccnc12 [Compound B44]	0	7	3	3					
CC(C)C(=O)Oc1c(-c2cc(F)ccc2Cl)c(=O)[nH]c2nccnc12 [Compound B45]	8	4	8	9	0				
CC(C)(C)C(=O)Oc1c(-c2cc(F)ccc2Cl)c(=O)[nH]c2nccnc12 [Compound B46]	6	10	4	10	9				
CC(C)C(=O)Oc1c(-c2cc(F)c(Cl)cc2Cl)c(=O)[nH]c2nccnc12 [Compound B47]	4	2	3	3	1				
CCn1c(=O)c(-c2c(Cl)ccc(C)c2F)c(OC(=O)C(C)C)c2nccnc21 [Compound C115]						7	4	8	4
Cc1ccc(Cl)c(-c2c(OC(=O)C(C)(C)C)c3nccnc3n(C)c2=O)c1F [Compound C116]						2	0	4	4
CCn1c(=O)c(-c2c(Cl)ccc(C)c2F)c(OC(=O)C(C)(C)C)c2nccnc21 [Compound C117]						0	0	1	5
CC(C)C(=O)Oc1c(-c2cc(C(F)(F)F)ccc2Cl)c(=O)n(C)c2nccnc12 [Compound C118]						7	6	8	6
CCn1c(=O)c(-c2cc(C(F)(F)F)ccc2Cl)c(OC(=O)C(C)C)c2nccnc21 [Compound C119]						7	7	8	6

SMILES	damage to plant, Setaria faberi (SETFA) [1]	damage to plant, Amaranthus retroflexus (AMARE) [2]	damage to plant, Echinochloa crusgalli (ECHCG) [3]	damage to plant, Solanum nigrum (SOLNI) [4]	damage to plant, Ipomea hederaceae (IPOHE) [5]	damage to plant, Nasturtium officinale (NAAOF) [6]	damage to plant, Amaranthus retroflexus (AMARE) [7]	damage to plant, Stellaria media (STEME) [8]	damage to plant, Solanum nigrum (SOLNI) [9]
Cn1c(=O)c(-c2c(Cl)cc(C(F)(F)F)cc2Cl)c(OC(=O)C(C)(C)C)c2nccnc21 [Compound C120]						6	5	7	7
Cn1c(=O)c(-c2cc(C(F)(F)F)ccc2Cl)c(OC(=O)C(C)(C)C)c2nccnc21 [Compound C121]						6	5	7	7
CCn1c(=O)c(-c2cc(C(F)(F)F)ccc2Cl)c(OC(=O)C(C)(C)C)c2nccnc21 [Compound C122]						4	6	7	6
Cn1c(=O)c(-c2cccc(C(F)(F)F)c2Cl)c(OC(=O)C(C)(C)C)c2nccnc21 [Compound C123]						4	4	6	6
CC(C)C(=O)Oc1c(-c2cccc(C(F)(F)F)c2Cl)c(=O)n(CC2CC2)c2nccnc12 [Compound C124]						8	9	8	7
C=CCn1c(=O)c(-c2cccc(C(F)(F)F)c2Cl)c(OC(=O)C(C)C)c2nccnc21 [Compound C125]						7	2	7	8
Cc1ccc(F)c(-c2c(OC(=O)C(C)C)c3nccnc3n(C)c2=O)c1Cl [Compound C126]						6	6	7	7
CCn1c(=O)c(-c2c(F)ccc(C)c2Cl)c(OC(=O)C(C)C)c2nccnc21 [Compound C127]						6	2	7	7
Cc1ccc(F)c(-c2c(OC(=O)C(C)(C)C)c3nccnc3n(C)c2=O)c1Cl [Compound C128]						6	3	6	7
Cn1c(=O)c(-c2ccccc2I)c(OC(=O)C(C)(C)C)c2nccnc21 [Compound C136]	8	9	9	10					
CC#CCOC(=O)Oc1c(-c2c(Cl)cccc2Cl)c(=O)n(C)c2nccnc12 [Compound C178]						6	4	7	2
CCn1c(=O)c(-c2ccccc2Cl)c(OC(C)=O)c2nccnc21 [Compound C185]						8	4	10	4
CCn1c(=O)c(-c2c(F)ccc(F)c2Cl)c(O)c2nccnc21 [Compound D2]						8	6	8	8
Cn1c(=O)c(-c2ccc(Cl)cc2Cl)c(O)c2nccnc21 [Compound D3]						8	0	8	8
Cn1c(=O)c(-c2c(F)ccc(F)c2Cl)c(O)c2c1ncc[n+]2[O-] [Compound D6, 7-(2-chloro-3,6-difluorophenyl)-8-hydroxy-5-methyl-1-oxy-5H-pyrido[2,3-b]pyrazin-6-one]						7	5	6	3

Reference: patent publication US8133847B2, “Pyrido[2,3-B]pyrazine derivatives useful as herbicidal compounds” (Syngenta Limited, priority 2006, dated 2012)
